The values that follow come from ChEMBL document CHEMBL3045271, “Synthesis and insecticidal activity of new phosphoramidates” (2012).

Holding throughout (format): functional
The subject of test [1] is Ascia monuste. Put plainly: Insecticidal activity against second-instar larvae of Ascia monuste assessed as mortality at compound administered topically at 1 ug/mg insect measured after 24 hr.
The subject of test [2] is Ascia monuste. Put plainly: Insecticidal activity against second-instar larvae of Ascia monuste assessed as mortality at compound administered topically at 1 ug/mg insect measured after 72 hr.
In test [3] the test system is Plutella xylostella. Nature of the test: Insecticidal activity against second-instar larvae of Plutella xylostella (diamondback moth) assessed as mortality at compound administered topically at 1 ug/mg insect measured after 72 hr.
Test [4] concerns Ascia monuste. Nature of the test: Insecticidal activity against second-instar larvae of Ascia monuste assessed as mortality at compound administered topically at 1 ug/mg insect measured after 48 hr.
In test [5] the test system is Plutella xylostella. Put plainly: Insecticidal activity against second-instar larvae of Plutella xylostella (diamondback moth) assessed as mortality at compound administered topically at 1 ug/mg insect measured after 24 hr.
The subject of test [6] is Diaphania hyalinata. Nature of the test: Insecticidal activity against second-instar larvae of Diaphania hyalinata assessed as mortality at compound administered topically at 1 ug/mg insect measured after 72 hr.
The test system of test [7] is Diaphania hyalinata. Nature of the test: Insecticidal activity against second-instar larvae of Diaphania hyalinata assessed as mortality at compound administered topically at 1 ug/mg insect measured after 24 hr.
For test [8], the system named is Plutella xylostella. Put plainly: Insecticidal activity against second-instar larvae of Plutella xylostella (diamondback moth) assessed as mortality at compound administered topically at 1 ug/mg insect measured after 48 hr.
The test system of test [9] is Diaphania hyalinata. Nature of the test: Insecticidal activity against second-instar larvae of Diaphania hyalinata assessed as mortality at compound administered topically at 1 ug/mg insect measured after 48 hr.

For orientation: mortality means the share of the test organisms that died. For the compound `Cc1ccc(CC2=CCOC2=O)cc1`, the mortality in test [1] is given as 5%; in [2], 17.5%; in test [3] it was 25%; in [4] it was 12.5%; in test [5], 12.5%; in test [6] it was 12.5%. In addition, the mortality in [7] worked out at 10%; in test [8], 17.5%; in test [9], 10%.
As to `CCN(CC)P(=O)(Oc1occc1Cc1ccc(C)cc1)N(CC)CC`, the mortality in test [1] was found to be 5%; in [2], 17.5%; in test [3], 32.5%; in [4], 15%; in test [5] it was 20%; in test [6], 30%. Also, the mortality in test [7], in test [8] and in test [9] was 25% each time.
With `CCN(CC)P(=O)(Oc1occc1Cc1cccc(C)c1)N(CC)CC`, the mortality in test [1] is on record as 7.5%; in [2], 12.5%; in test [3], 45%; in test [4] it was 12.5%; in [5], 22.5%; in [6], 15%. Moreover, the mortality in test [7] worked out at 15%; in [8], 40%; in test [9], 15%.
`CCN(CC)P(=O)(Oc1occc1Cc1ccccc1)N(CC)CC`: the mortality is listed as 22.5% in test [1]; 25% in test [2]; 45% in [3]; 27.5% in test [4]; 25% in test [5]; 5% in test [6]. Further, the results for the mortality in [7], in test [8] and in [9] were 5%, 30% and 5%, respectively.
Take `CCN(CC)P(=O)(Oc1occc1Cc1cccc(Br)c1)N(CC)CC`: the mortality in test [1] stood at 2.5%; in test [2], 10%; in test [3], 47.5%; in test [4], 7.5%; in [5] it was 27.5%; in test [6] it was 27.5%. For the same compound, the mortality in test [7] is listed as 25%; in test [8], 32.5%; in test [9], 25%.
In the case of `CCN(CC)P(=O)(Oc1occc1Cc1ccccc1Cl)N(CC)CC`, the mortality in [1] was determined as 5%; in [2], 5%; in test [3] it was 45%; in test [4], 5%; in [5] it was 20%; in [6], 10%. Also, the mortality in test [7] is on record as 10%; in test [8] it was 32.5%; in [9] it was 10%.
Take `CCN(CC)P(=O)(Oc1occc1Cc1cccc(F)c1)N(CC)CC`: the mortality in test [1] is 5%; in [2], 15%; in [3], 52.5%; in test [4], 17.5%; in [5], 30%; in [6], 36.6%. Also, the mortality in test [7] is 23.3%; in [8], 42.5%; in test [9], 23.3%.
As to `CCN(CC)P(=O)(Oc1occc1Cc1ccccc1F)N(CC)CC`, the mortality was 22.5% in test [1]; 32.5% in test [2]; 35% in [3]; 27.5% in test [4]; 12.5% in test [5]; 23.3% in test [6]. The mortality is given as 23.3% in test [7], 22.5% in test [8] and 23.3% in test [9].
As for `CCN(CC)P(=O)(Oc1occc1Cc1cccc(Cl)c1)N(CC)CC`, the mortality in test [1] was found to be 0%; in [2] it was 12.5%; in test [3] it was 37.5%; in test [4], 7.5%; in test [5], 5%; in [6], 12.5%. Also, the mortality stood at 12.5% in [7], 22.5% in test [8] and 12.5% in test [9].
Regarding `CCN(CC)P(=O)(Oc1occc1Cc1ccc(Br)cc1)N(CC)CC`, the mortality in test [1] was 2.5%; in test [2], 7.5%; in test [3], 32.5%; in test [4], 5%; in test [5], 7.5%; in [6], 35%. For the same compound, the mortality was 27.5% in test [7], 20% in test [8] and 27.5% in test [9].
On to `CCN(CC)P(=O)(Oc1occc1Cc1c(C)cccc1Cl)N(CC)CC`, for which the mortality is on record as 5% in [1]; 20% in test [2]; 37.5% in [3]; 15% in test [4]; 5.3% in test [5]; 20% in test [6]. The mortality in test [7], in [8] and in [9] was 20% throughout.
Consider `O=P(NC1CCCCC1)(NC1CCCCC1)Oc1ccco1`, for which the mortality in test [1] was determined as 70%; in test [2], 70%; in test [3], 12.5%; in test [4] it was 70%; in test [5], 2.5%; in test [6] it was 10%. Moreover, the mortality stood at 2.5% in test [7], 7.5% in test [8] and 2.5% in [9].
For the compound `O=P(Oc1ccco1)(N1CCCCC1)N1CCCCC1`, the mortality is reported as 70% in test [1]; 75% in test [2]; 20% in test [3]; 75% in test [4]; 5% in test [5]; 10% in test [6]. Besides, the mortality in test [7] was 7.5%; in [8], 10%; in test [9] it was 7.5%.
For the compound `O=P(Oc1ccco1)(Oc1ccco1)N1CCCCC1`, the mortality in test [1] amounted to 87.5%; in [2], 90%; in test [3], 10%; in [4], 87.5%; in [5], 5%; in test [6], 17.5%. In addition, the results for the mortality in [7], in test [8] and in test [9] were 7.5%, 5% and 7.5%, respectively.
For the compound `CCN(CC)P(=O)(Oc1ccco1)N(CC)CC`, the mortality in test [1] is 2.5%; in test [2], 12.5%; in [3], 22.5%; in [4] it was 10%; in test [5] it was 7.5%; in [6], 25%. Further, the mortality in [7] worked out at 22.5%; in test [8], 10%; in test [9], 22.5%.
In the case of `CCN(CC)P(=O)(Oc1ccco1)Oc1ccco1`, the mortality in [1] was 62.5%; in test [2], 67.5%; in test [3], 30%; in test [4], 65%; in test [5], 17.5%; in test [6], 70%. The mortality in [7] is 55%; in [8] it was 20%; in [9], 55%.
As to `COP(=S)(OC)Oc1nc(Cl)c(Cl)cc1Cl` [CHLORPYRIFOS-METHYL], the mortality in test [1], in test [2], in test [3], in test [4], in test [5] and in [6] was 100% throughout. In addition, the mortality in test [7], in test [8] and in test [9] was 100% throughout.
For the compound `O=C1C=CCO1` [FURAN-2(5H)-ONE], the mortality in test [1] came to 12.5%; in [2], 25%; in test [3], 32.5%; in test [4], 22.5%; in test [5], 27.5%; in [6], 24.3%. The mortality in [7] came out at 18.9%; in test [8] it was 27.5%; in test [9], 18.9%.
